How the values were obtained:
Assay type in all cases: functional
[1] = Cytotoxicity against human nasopharyngeal carcinoma cells; conditions: Nasopharyngeal carcinoma cell, read-out: ED50 (the source's name)
[2] = Cytotoxicity against human colon carcinoma cells; conditions: Colon carcinoma cell, read-out: ED50 (the source's name)
[3] = Cytotoxicity against human squamous cervical carcinoma cells; conditions: read-out: ED50 (the source's name)
[4] = Cytotoxicity against human ovarian carcinoma cells; conditions: Ovarian carcinoma cell, read-out: ED50 (the source's name)

Measured: EC50

CCCCCCCCCCCC(=O)O[C@H]1[C@H](O[C@@H]2[C@H]3OC(=O)CCCCCCCCC[C@H](CCCCC)O[C@@H]4O[C@H](C)[C@H](O)[C@H](O)[C@H]4O[C@H](O[C@H]2C)[C@@H]3O)O[C@@H](C)[C@H](O[C@@H]2O[C@@H](C)[C@H](OC(=O)[C@@H](C)CC)[C@@H](O)[C@H]2O)[C@H]1O[C@@H]1O[C@@H](C)[C@H](O)[C@@H](O)[C@H]1O [PESCAPREIN III]
5 µg/mL: all assays above

CCCCCCCCCCCC(=O)O[C@H]1[C@H](O[C@@H]2[C@H]3OC(=O)CCCCCCCCC[C@H](CCCCC)O[C@@H]4O[C@H](C)[C@H](O)[C@H](O)[C@H]4O[C@H](O[C@H]2C)[C@@H]3O)O[C@@H](C)[C@H](O[C@@H]2O[C@@H](C)[C@H](OC(=O)C(C)C)[C@@H](O)[C@H]2O)[C@H]1O[C@@H]1O[C@@H](C)[C@H](O)[C@@H](O)[C@H]1O [PESCAPREIN II]
5 µg/mL: all assays above

CCCCCCCCCCCC(=O)O[C@H]1[C@H](O[C@@H]2[C@H]3OC(=O)CCCCCCCCC[C@H](CCCCC)O[C@@H]4O[C@H](C)[C@H](O)[C@H](O)[C@H]4O[C@H](O[C@H]2C)[C@@H]3O)O[C@@H](C)[C@H](O[C@@H]2O[C@@H](C)[C@H](OC(=O)CCCCC)[C@@H](O)[C@H]2O)[C@H]1O[C@@H]1O[C@@H](C)[C@H](O)[C@@H](O)[C@H]1O [PESCAPREIN IV]
5 µg/mL: all assays above

CCCCCCCCCCCC(=O)O[C@H]1[C@H](O[C@@H]2[C@H]3OC(=O)CCCCCCCCC[C@H](CCCCC)O[C@@H]4O[C@H](C)[C@H](O)[C@H](O)[C@H]4O[C@H](O[C@H]2C)[C@@H]3O)O[C@@H](C)[C@H](O[C@@H]2O[C@@H](C)[C@H](O)[C@@H](O)[C@H]2O)[C@H]1O[C@@H]1O[C@@H](C)[C@H](O)[C@@H](O)[C@H]1O [PESCAPREIN I]
5 µg/mL: all assays above

CCCCCCCCCCCC(=O)O[C@H]1[C@H](O[C@@H]2[C@@H](O)[C@@H](O)[C@H](O[C@H]3[C@H](O[C@@H](CCCCC)CCCCCCCCCC(=O)OC)O[C@H](C)[C@H](O)[C@@H]3O)O[C@H]2C)O[C@@H](C)[C@H](O[C@@H]2O[C@@H](C)[C@H](O)[C@@H](O)[C@H]2O)[C@H]1O[C@@H]1O[C@@H](C)[C@H](O)[C@@H](O)[C@H]1O [PESCAPROSIDE A]
5 µg/mL: all assays above

CCCCCCCCCC(=O)O[C@H]1[C@H](O[C@@H]2[C@H]3OC(=O)CCCCCCCCC[C@H](CCCCC)O[C@@H]4O[C@H](C)[C@H](O)[C@H](O)[C@H]4O[C@H](O[C@H]2C)[C@@H]3O)O[C@@H](C)[C@H](O[C@@H]2O[C@@H](C)[C@H](OC(=O)[C@@H](C)CC)[C@@H](O)[C@H]2O)[C@H]1O[C@@H]1O[C@@H](C)[C@H](O)[C@@H](O)[C@H]1O [STOLONIFERIN III]
5 µg/mL: all assays above

From ChEMBL document CHEMBL1158690, “Characterization of lipophilic pentasaccharides from beach morning glory (Ipomoea pes-caprae)” (2005)
